Data on 20 molecules can be found in US11690824B2, “Antibacterial compounds” (THE GENERAL HOSPITAL CORPORATION, priority 2018, dated 2023).

In brackets after ≈: the same amount, converted by molar mass. Where two headings read alike, the source gives them in different places.

For one data set, the system named is S. aureus (MRSA) MW2. The data set can be described thus: Minimal inhibitory concentration (MIC) assay, micro-dilution. The class given is cell-based. Conditions: for antibiotic activity / potency relative to nTZDpa: growing S. aureus cells. The text has this:
Bacterial strains, growth conditions, and persister isolation. Methicillin-resistant S. aureus strains, MW2 BAA-1707, ATCC 33591, and JE2, methicillin-susceptible S. aureus strains, NCTC 8325, Newman, and ATCC 29213, vancomycin-resistant S. aureus strain, VRS1, Enterococcus faecium E007, vancomycin-resistant E. faecium strains, C68,^7 WB312, and WC196, Klebsiella pneumoniae WGLW2 (BEI Resources, Manassas, Va., USA), Acinetobacter baumannii ATCC 17978, Pseudomonas aeruginosa PA14, and Enterobacter aerogenes ATCC 13048 were used to test antimicrobial activity (Table 1). S. aureus strains were grown in tryptic soy broth (TSB) (BD, Franklin Lakes, N.J., USA), and E. faecium was grown in brain-heart infusion (BHI) broth (BD, Franklin Lakes, N.J., USA) at 37° C. K. pneumoniae, A. baumannii, P. aeruginosa, and E. aerogenes were grown in Luria Bertani (LB) broth (BD, Franklin Lakes, N.J., USA) at 37° C.
Minimal inhibitory concentration (MIC) assay. The MICS of antibiotics were determined by the standard micro-dilution method recommended by the Clinical and Laboratory Standards Institute. MIC assays were conducted in biological triplicate.

The next data set deals with human erythrocytes. The data set can be described thus: Human blood hemolysis. The data set is classed as cell-based. Conditions: human erythrocytes. Here is the method:
Human blood hemolysis. Hemolytic activity was evaluated as described in a previous study. Briefly, 100 μL of 4% human erythrocytes (Rockland Immunochemicals, Limerick, Pa., USA) was added to 100 μL of 2-fold serial dilutions of compounds in PBS, 0.2% DMSO (negative control), or 2% Triton-X 100 (positive control) in a 96-well plate. The 96-well plate was incubated at 37° C. for 1 h and then centrifuged at 500× g for 5 min. 50 μL of the supernatant was transferred to a fresh 96-well plate, and absorbance of supernatants was measured at 540 nm. Percent hemolysis was calculated using the following equation: (A540 nm of compound treated sample−A540 nm of 0.1% DMSO treated sample)/(A540 nm of 1% Triton X-100 treated sample−A540 nm of 0.1% DMSO treated sample)×100. HC50 (concentration of a compound causing 50% hemolysis) was determined using SigmaPlot 10.0 (Systat Software Inc., San Jose, Calif., USA).

Data set [1] deals with MRSA MW2 persisters (stationary phase). The data set can be described thus: Persister killing assay. The class given is cell-based, S. aureus. To be noted: 64 μg/mL. Here is the method: Persister killing assay. […] Persister cells of MRSA MW2 were prepared by growing cultures overnight to stationary phase at 37° C. at 200 rpm and washing 3 times with PBS. 1 mL of ˜2×10^8 CFU/mL MRSA persisters was added to 1 mL of PBS containing 2-fold of the desired concentration of antibiotics in a 96-well assay block (Corning Costar 3960). The assay block was incubated at 37° C., with shaking at 200 rpm. At specific times, […] were removed, washed once with PBS, serially diluted and spot-plated on TSA plates. Colonies were counted to enumerate the number of live cells after overnight incubation at 37° C. These experiments were conducted in biological triplicate.

Another data set concerns MRSA MW2. The data set can be described thus: Antibiotic synergy test (checkerboard). The data set is classed as cell-based, S. aureus. To be noted: nTZDpa in combination with the named antibiotic, synergy if FICI ≤ 0.5. The method, then:
Antibiotic synergy test. Antibiotic synergism was evaluated by the checkerboard method. Briefly, 2-fold serial dilutions of nTZDpa were combined with 2-fold serial dilutions of each other antibiotic, which created an 8×8 matrix in a 96-well microtiter plate. The fractional inhibitory concentration index (FICI) was calculated as follows: FICI=MIC of compound A in combination/MIC of compound A alone+MIC of compound B in combination/MIC of compound B alone. The interaction between two compounds was defined, as follows: synergy if FICI≤0.5, no interaction if 0.5<FICI≤4, and antagonism if FICI>4.

The mark [2] stands for this setting: Staphylococcus aureus, Example 5, MRSA MW2, read-out: MIC.
Where [3] appears, read: Staphylococcus aureus, Table 3, growing MRSA, read-out: MIC.
The mark [4] stands for this setting: Staphylococcus aureus, MRSA, PPARγ agonists, read-out: MICS against S. aureus MW2.

For the molecule `O=C(O)c1c(Sc2ccccc2)c2cc(Cl)ccc2n1Cc1cccc(Cl)c1` [Analog 2b, 5-chloro-1-(3-chlorobenzyl)-3-(phenylthio)-1H-indole-2-carboxylic acid], in the data set with S. aureus (MRSA) MW2 (Example 5, MRSA MW2), the MIC result is “same MIC”.

As to `Cn1c(C(=O)O)c(Sc2ccccc2)c2cc(Cl)ccc21` [Analog 5, 5-chloro-1-methyl-3-(phenylthio)-1H-indole-2-carboxylic acid], the MIC in the data set with S. aureus (MRSA) MW2 (setting [2]) worked out at 64 µg/mL (≈ 201 µM).

As for `O=C(O)c1c(Sc2ccc(Cl)cc2)c2cc(Cl)ccc2n1Cc1ccc(Cl)cc1` [Compound 4, 5-chloro-1-(4-chlorobenzyl)-3-((4-chlorophenyl)thio)-1H-indole-2-carboxylic acid], in the data set with S. aureus (MRSA) MW2 (setting [3]), the MIC was found to be 2 µg/mL (≈ 4.32 µM). Moreover, the “HC50: median hemolytic concentration” value in the data set with human erythrocytes amounted to 34 µg/mL.

Take `CC(C)(C)c1ccc(Sc2c(C(=O)O)n(Cc3ccc(Cl)cc3)c3ccc(Cl)cc23)cc1` [Compound 5, 3-((4-(tert-butyl)phenyl)thio)-5-chloro-1-(4-chlorobenzyl)-1H-indole-2-carboxylic acid]: the MIC in the data set with S. aureus (MRSA) MW2 (setting [3]) was 2 µg/mL (≈ 4.13 µM). Besides, in the data set on human erythrocytes, the “HC50: median hemolytic concentration” value worked out at 26 µg/mL.

For `O=C(O)c1c(Oc2ccccc2)c2cc(Cl)ccc2n1Cc1ccc(Cl)cc1` [Compound 6, 5-chloro-1-(4-chlorobenzyl)-3-phenoxy-1H-indole-2-carboxylic acid], the “decrease in viability of persisters” value in data set [1] is 3 log. In the data set with S. aureus (MRSA) MW2 (setting [3]), the MIC came to 4 µg/mL (≈ 9.7 µM). Further, the “antibiotic activity / potency relative to nTZDpa” value in the data set with S. aureus (MRSA) MW2 is on record as “equipotent with nTZDpa”. In addition, the “HC50: median hemolytic concentration” value in the data set with human erythrocytes was greater than 64 µg/mL.

For the molecule `O=C(O)c1c(Oc2ccccc2)c2cc(Cl)ccc2n1Cc1ccc(Cl)c(Cl)c1` [Compound 10, 5-chloro-1-(3,4-dichlorobenzyl)-3-phenoxy-1H-indole-2-carboxylic acid], in the data set on S. aureus (MRSA) MW2 (setting [3]), the MIC was 2 µg/mL (≈ 4.48 µM). The “HC50: median hemolytic concentration” value with human erythrocytes was greater than 64 µg/mL.

Take `O=C(O)c1c(Oc2ccc(Cl)cc2)c2cc(Cl)ccc2n1Cc1ccc(Cl)cc1` [Compound 11, 5-chloro-1-(4-chlorobenzyl)-3-(4-chlorophenoxy)-1H-indole-2-carboxylic acid]: in the data set with S. aureus (MRSA) MW2 (setting [3]), the MIC came out at 2 µg/mL (≈ 4.48 µM). The “HC50: median hemolytic concentration” value in the data set on human erythrocytes is greater than 64 µg/mL.

On to `O=C(O)c1c(Oc2ccc(Cl)c(Cl)c2)c2cc(Cl)ccc2n1Cc1ccc(Cl)cc1` [Compound 12, 5-chloro-1-(4-chlorobenzyl)-3-(3,4-dichlorophenoxy)-1H-indole-2-carboxylic acid], for which the MIC with S. aureus (MRSA) MW2 (setting [3]) came out at 1 µg/mL (≈ 2.08 µM). For the same molecule, the “HC50: median hemolytic concentration” value in the data set on human erythrocytes came out at 38 µg/mL.

Take `O=C(O)c1c(Oc2ccc(Br)cc2)c2cc(Cl)ccc2n1Cc1ccc(Cl)cc1` [Compound 13, 3-(4-bromophenoxy)-5-chloro-1-(4-chlorobenzyl)-1H-indole-2-carboxylic acid]: the MIC with S. aureus (MRSA) MW2 (setting [3]) was determined as 2 µg/mL (≈ 4.07 µM). Further, the “HC50: median hemolytic concentration” value with human erythrocytes was greater than 64 µg/mL.

For the molecule `O=C(O)c1c(Oc2ccc(I)cc2)c2cc(Cl)ccc2n1Cc1ccc(Cl)cc1` [Compound 14, 5-chloro-1-(4-chlorobenzyl)-3-(4-iodophenoxy)-1H-indole-2-carboxylic acid], in the data set with S. aureus (MRSA) MW2 (setting [3]), the MIC came out at 1 µg/mL (≈ 1.86 µM). Moreover, in the data set on human erythrocytes, the “HC50: median hemolytic concentration” value is greater than 64 µg/mL.

As for `O=C(O)c1c(Cc2ccccc2)c2cc(Cl)ccc2n1Cc1ccc(Cl)cc1` [Compound S12, 3-benzyl-5-chloro-1-(4-chlorobenzyl)-1H-indole-2-carboxylic acid], in the data set on S. aureus (MRSA) MW2, the “antibiotic activity / potency relative to nTZDpa” value is “less potency”.

Take `OCc1c(Oc2ccccc2)c2cc(Cl)ccc2n1Cc1ccc(Cl)cc1` [Compound S13, (5-chloro-1-(4-chlorobenzyl)-3-phenoxy-1H-indol-2-yl)methanol]: the “antibiotic activity / potency relative to nTZDpa” value in the data set with S. aureus (MRSA) MW2 was “reduction of antibiotic activity”.

Turning to `NC[C@H]1O[C@H](O[C@H]2[C@H](O)[C@@H](O[C@H]3O[C@H](CO)[C@@H](O)[C@H](N)[C@H]3O)[C@H](N)C[C@@H]2N)[C@H](O)[C@@H](O)[C@@H]1O` [Kanamycin, kanamysin], the “FICI (fractional inhibitory concentration index)” value in the data set on MRSA MW2 is reported as 0.5.

Regarding `CO[C@H]1/C=C/O[C@@]2(C)Oc3c(C)c(O)c4c(O)c(c(/C=N/N5CCN(C)CC5)c(O)c4c3C2=O)NC(=O)/C(C)=C\C=C\[C@H](C)[C@H](O)[C@@H](C)[C@@H](O)[C@@H](C)[C@H](OC(C)=O)[C@@H]1C` [Rifampicin, rifampicin], the “FICI (fractional inhibitory concentration index)” value with MRSA MW2 stood at 1.

Turning to `O=C(O)c1c(Sc2ccccc2)c2cc(Cl)ccc2n1Cc1ccccc1` [S4 (analog 2), 1-benzyl-5-chloro-3-(phenylthio)-1H-indole-2-carboxylic acid], in the data set with S. aureus (MRSA) MW2 (setting [2]), the MIC stood at 16 µg/mL (≈ 40.6 µM).

For `[H]/N=C(/N)N[C@H]1[C@H](O)[C@@H](O)[C@H](O[C@@H]2O[C@@H](C)[C@](O)(C=O)[C@H]2O[C@@H]2O[C@@H](CO)[C@H](O)[C@@H](O)[C@@H]2NC)[C@@H](N/C(N)=N\[H])[C@@H]1O` [Streptomycin, streptomycin], the “FICI (fractional inhibitory concentration index)” value in the data set on MRSA MW2 is on record as 0.37.

As to `CN(C)[C@@H]1C(O)=C(C(N)=O)C(=O)[C@@]2(O)C(O)=C3C(=O)c4c(O)cccc4[C@@](C)(O)[C@H]3C[C@@H]12` [Tetracycline, tetracycline], the “FICI (fractional inhibitory concentration index)” value in the data set on MRSA MW2 turned out to be 1.125.

Turning to `NC[C@H]1O[C@H](O[C@H]2[C@H](O)[C@@H](O[C@H]3O[C@H](CO)[C@@H](O)[C@H](N)[C@H]3O)[C@H](N)C[C@@H]2N)[C@H](N)C[C@@H]1O` [Tobramycin, tobaramysin], in the data set with MRSA MW2, the “FICI (fractional inhibitory concentration index)” value is 0.31.

With `CCc1ccc(CCOc2ccc(CC3SC(=O)NC3=O)cc2)nc1` (stereo not drawn) [pioglitazone, reference compound], the MIC in the data set with S. aureus (MRSA) MW2 (setting [4]) was greater than 64 µg/mL.

Regarding `CN(CCOc1ccc(CC2SC(=O)NC2=O)cc1)c1ccccn1` (stereo not drawn) [rosiglitazone, reference compound], in the data set with S. aureus (MRSA) MW2 (setting [4]), the MIC is greater than 64 µg/mL.
